Laboratory results taken from patent publication EP0321364A2, “Orally administrable cephalosporin derivatives, and the production and uses thereof” (ZAIDAN HOJIN BISEIBUTSU KAGAKU KENKYU KAI, priority 1987, dated 1989).
In brackets after ≈: the same amount, converted by molar mass. Read-outs that look alike come from different tables or passages of the source.

Columns and labels:
[1] = system: Bacillus subtilis ATCC6633; assay: MIC, serial dilution method in Müller-Hinton agar; assay type: cell-based; conditions: 37°C, 18 hours
Procedure: (§1) The antibacterial activities of the cephalosporin compounds of the formula (I) according to this invention, specifically the final product compounds of the Examples 1 to 6 given hereinafter, were assayed in term of their minimum inhibitory concentrations (MIC; mcg/ml) against various test bacteria, as determined according to a standard serial dilution method in Müller-Hinton agar medium (a product of Difico company), where the incubation was made at 37°C for 18 hours. For the comparison purpose, the antibacterial spectrum of a known compound, Cefalexin (abbreviated as CEX) was also assayed in the same way as above.

[2] = system: Escherichia coli K-12 C600; assay: MIC, serial dilution method in Müller-Hinton agar; assay type: cell-based
Procedure: as §1

[3] = system: Escherichia coli NIHJ-JS-2; assay: MIC, serial dilution method in Müller-Hinton agar; assay type: cell-based
Procedure: as §1

[4] = system: Klebsiella oxytosa GN10560; assay: MIC, serial dilution method in Müller-Hinton agar; assay type: cell-based; conditions: Klebsiella oxytosa GN10560, cefuroximase producing strain, 37°C, 18 hours
Procedure: as §1

[5] = system: Klebsiella pneumoniae PCI602; assay: MIC, serial dilution method in Müller-Hinton agar; assay type: cell-based
Procedure: as §1

[6] = system: Micrococcus luteus ATCC9341; assay: MIC, serial dilution method in Müller-Hinton agar; assay type: cell-based; conditions: 37°C, 18 hours
Procedure: as §1

Proteus morganii IFO3848 = assay: MIC, serial dilution method in Müller-Hinton agar; assay type: cell-based; conditions: Morganella morganii
Procedure: as §1

Proteus rettgeri IFO3850 = assay: MIC, serial dilution method in Müller-Hinton agar; assay type: cell-based; conditions: Providencia rettgeri
Procedure: as §1

Proteus vulgaris OX-19 = assay: MIC, serial dilution method in Müller-Hinton agar; assay type: cell-based; conditions: OX19, 37°C, 18 hours
Procedure: as §1

[7] = system: Pseudomonas aeruginosa IFO3445; assay: MIC, serial dilution method in Müller-Hinton agar; assay type: cell-based; conditions: 37°C, 18 hours
Procedure: as §1

[8] = system: Rms139/MI Pseudomonas aeruginosa; assay: MIC, serial dilution method in Müller-Hinton agar; assay type: cell-based; conditions: 18 h
Procedure: as §1

[9] = system: Rms212/Escherichia coli K-12 W3630; assay: MIC, serial dilution method in Müller-Hinton agar; assay type: cell-based; conditions: 18 h
Procedure: as §1

[10] = system: Rms213/Escherichia coli K-12 W3630; assay: MIC, serial dilution method in Müller-Hinton agar; assay type: cell-based; conditions: 18 h
Procedure: as §1

[11] = system: Rms823/Escherichia coli K-12 W3630; assay: MIC, serial dilution method in Müller-Hinton agar; assay type: cell-based; conditions: 18 h
Procedure: as §1

[12] = system: Rte16/Escherichia coli K-12 W3630; assay: MIC, serial dilution method in Müller-Hinton agar; assay type: cell-based; conditions: 18 h
Procedure: as §1

[13] = system: Salmonella enteritidis G14; assay: MIC, serial dilution method in Müller-Hinton agar; assay type: cell-based; conditions: Salmonella enterica
Procedure: as §1

[14] = system: Salmonella paratyphi 1015; assay: MIC, serial dilution method in Müller-Hinton agar; assay type: cell-based; conditions: Salmonella enterica, 37°C, 18 hours
Procedure: as §1

[15] = system: Salmonella schottmulleri 8006; assay: MIC, serial dilution method in Müller-Hinton agar; assay type: cell-based; conditions: 37°C, 18 hours
Procedure: as §1

Salmonella typhi 901 = assay: MIC, serial dilution method in Müller-Hinton agar; assay type: cell-based; conditions: Salmonella enterica, 18 h
Procedure: as §1

[16] = system: Salmonella typhimurium IID971; assay: MIC, serial dilution method in Müller-Hinton agar; assay type: cell-based; conditions: Salmonella enterica
Procedure: as §1

[17] = system: Staphylococcus aureus FDA209P JC-1; assay: MIC, serial dilution method in Müller-Hinton agar; assay type: cell-based
Procedure: as §1

[18] = system: Staphylococcus aureus MS353; assay: MIC, serial dilution method in Müller-Hinton agar; assay type: cell-based
Procedure: as §1

[19] = system: Staphylococcus aureus Terajima; assay: MIC, serial dilution method in Müller-Hinton agar; assay type: cell-based; conditions: 37°C, 18 hours
Procedure: as §1

[20] = Test 1: urinary recovery after oral administration; assay type: in vivo; conditions: mice (ICR-strain, female), 300 mcg per mouse, urine collected until 5 hours after administration, microbial assay, molar percentage
Procedure: To mice (ICR-strain, female, 4 weeks-aged) was orally administered a new cephalosporin compound according to this invention at a dosage of 300 mcg per mouse. Until the end of 5 hours after oral administration of the test cephalosporin compound, all the volumes of urine discharged by the treated mice were collected together, and the total amount of the test compound remaining in the collected urine was measured by a microbial assay method. The urinary recovery of the test compound was calculated in terms of percentage of the molar quantity of the test compound as recovered, against the molar quantity of the test compound as orally given.

[21] = K12C600, Escherichia coli K-12 C600, Müller-Hinton agar, 37°C, 18 hours, read-out: MIC
[22] = NIHJJS2, Escherichia coli NIHJ-JS-2, Müller-Hinton agar, 37°C, 18 hours, read-out: MIC
[23] = Klebsiella pneumoniae PCI602, Müller-Hinton agar, 37°C, 18 hours, read-out: MIC
[24] = Proteus morganii IFO3848, Müller-Hinton agar, 37°C, 18 hours, read-out: MIC
[25] = Proteus rettgeri IFO3850, Müller-Hinton agar, 37°C, 18 hours, read-out: MIC
[26] = Salmonella enteritidis G14, Müller-Hinton agar, 37°C, 18 hours, read-out: MIC
[27] = Staphylococcus aureus, FDA209P, 18 h
[28] = Staphylococcus aureus MS353, Müller-Hinton agar, 37°C, 18 hours, read-out: MIC
[29] = Staphylococcus aureus, MS353, 18 h
[30] = Escherichia coli, K12C600, 18 h
[31] = Escherichia coli, NIHJJS2, 18 h
[32] = Klebsiella pneumoniae, PCI602, 18 h
[33] = Staphylococcus aureus FDA209P JC-1, Müller-Hinton agar, 37°C, 18 hours, read-out: MIC

SMILES	MIC [1] [mg/L]	MIC [4] [mg/L]	MIC [6] [mg/L]	MIC (Proteus morganii IFO3848; [24]) [mg/L]	MIC (Proteus rettgeri IFO3850; [25]) [mg/L]	MIC (Proteus vulgaris OX-19) [mg/L]	MIC [7] [mg/L]	MIC [8] [mg/L]	MIC [9] [mg/L]	MIC [10] [mg/L]	MIC [11] [mg/L]	MIC [12] [mg/L]	MIC [13, 26] [mg/L]	MIC [14] [mg/L]	MIC [15] [mg/L]	MIC (Salmonella typhi 901) [mg/L]	MIC [17, 27] [mg/L]	MIC [19] [mg/L]	dose excreted [20] [%]	MIC ([16]; 18 h) [mg/L]	other results
C/C=C\C1=C(C(=O)O)N2C(=O)C(NC(=O)[C@H](N)c3ccc(CO)c(OC)c3)[C@H]2SC1 (stereo partly drawn) [Example 5 Compound, 7-{(R)-2-amino-2-(4-hydroxymethyl-3-methoxyphenyl)acetamido}-3-{(Z)-1-propenyl}-3-cephem-4-carboxylic acid]	0.05 (≈ 0.115 µM)	> 100	0.025 (≈ 0.0577 µM)	3.13 (≈ 7.22 µM)	3.13 (≈ 7.22 µM)	50 (≈ 115 µM)	> 100	100 (≈ 231 µM)	12.5 (≈ 28.8 µM)	25 (≈ 57.7 µM)	> 100	3.13 (≈ 7.22 µM)	0.78 (≈ 1.8 µM)	0.78 (≈ 1.8 µM)	0.39 (≈ 0.9 µM)	1.56 (≈ 3.6 µM)	1.56 (≈ 3.6 µM)	0.1 (≈ 0.231 µM)	47.9		MIC [2, 21]: 3.13 mg/L (≈ 7.22 µM); MIC [3, 22]: 6.25 mg/L (≈ 14.4 µM); MIC [5, 23]: 0.78 mg/L (≈ 1.8 µM); MIC ([16]; Salmonella typhimurium IID971, Müller-Hinton agar, 37°C, 18 hours, read-out: MIC): 3.13 mg/L (≈ 7.22 µM); MIC [18, 28]: 0.78 mg/L (≈ 1.8 µM)
C/C=C\C1=C(C(=O)O)N2C(=O)C(NC(=O)[C@H](N)c3ccc(CO)c(O)c3)[C@H]2SC1 (stereo partly drawn) [Example 4 Compound, 7-{(R)-2-amino-2-(3-hydroxy-4-hydroxymethylphenyl)acetamido)-3-{(Z)-1-propenyl)-3-cephem-4-carboxylic acid]	0.2 (≈ 0.477 µM)	> 100	0.1 (≈ 0.238 µM)			25 (≈ 59.6 µM)	> 100	> 100	12.5 (≈ 29.8 µM)	6.25 (≈ 14.9 µM)	100 (≈ 238 µM)	12.5 (≈ 29.8 µM)	0.78 (≈ 1.86 µM)	1.56 (≈ 3.72 µM)	1.56 (≈ 3.72 µM)	0.78 (≈ 1.86 µM)	1.56 (≈ 3.72 µM)	0.1 (≈ 0.238 µM)	58.8	1.56 (≈ 3.72 µM)	MIC [2, 21]: 3.13 mg/L (≈ 7.46 µM); MIC [3, 22]: 6.25 mg/L (≈ 14.9 µM); MIC [5, 23]: 0.78 mg/L (≈ 1.86 µM); MIC (Proteus morganii IFO3848; IFO3848, 18 h): 1.56 mg/L (≈ 3.72 µM); MIC (Proteus rettgeri IFO3850; IFO3850, 18 h): 1.56 mg/L (≈ 3.72 µM); MIC [18, 29]: 1.56 mg/L (≈ 3.72 µM)
COCC1=C(C(=O)O)N2C(=O)C(NC(=O)[C@H](N)c3ccc(CO)c(O)c3)[C@H]2SC1 (stereo partly drawn) [Example 2 Compound, 7-{(R)-2-amino-2-(3-hydroxy-4-hydroxymethylphenyl)acetamido}-3-methoxymethyl-3-cephem-4-carboxylic acid]	0.2 (≈ 0.472 µM)	> 100	0.1 (≈ 0.236 µM)	50 (≈ 118 µM)	25 (≈ 59 µM)	100 (≈ 236 µM)	> 100	> 100	50 (≈ 118 µM)	12.5 (≈ 29.5 µM)	> 100	25 (≈ 59 µM)		12.5 (≈ 29.5 µM)	6.25 (≈ 14.8 µM)	6.25 (≈ 14.8 µM)		0.2 (≈ 0.472 µM)	48.3	6.25 (≈ 14.8 µM)	MIC [2, 30]: 12.5 mg/L (≈ 29.5 µM); MIC [3, 31]: 12.5 mg/L (≈ 29.5 µM); MIC [5, 32]: 6.25 mg/L (≈ 14.8 µM); MIC ([13]; ENTERITIDIS, 18 h): 6.25 mg/L (≈ 14.8 µM); MIC [17, 33]: 1.56 mg/L (≈ 3.68 µM); MIC [18, 28]: 1.56 mg/L (≈ 3.68 µM)
CC1=C(C(=O)O)N2C(=O)C(NC(=O)[C@H](N)c3ccc(CO)c(O)c3)[C@H]2SC1 (stereo partly drawn) [Example 1 Compound, 7-{(R)-2-amino-2-(3-hydroxy-4-hydroxymethylphenyl)acetamido}-3-methyl-3-cephem-4-carboxylic acid]	0.78 (≈ 1.98 µM)	100 (≈ 254 µM)	0.1 (≈ 0.254 µM)	> 100		100 (≈ 254 µM)	> 100	> 100	12.5 (≈ 31.8 µM)	12.5 (≈ 31.8 µM)	100 (≈ 254 µM)	12.5 (≈ 31.8 µM)	50 (≈ 127 µM)	12.5 (≈ 31.8 µM)	12.5 (≈ 31.8 µM)	6.25 (≈ 15.9 µM)		0.2 (≈ 0.508 µM)	65.1	6.25 (≈ 15.9 µM)	MIC [2, 30]: 12.5 mg/L (≈ 31.8 µM); MIC [3, 31]: 12.5 mg/L (≈ 31.8 µM); MIC [5, 32]: 6.25 mg/L (≈ 15.9 µM); MIC (Proteus rettgeri IFO3850; IFO3850, 18 h): 12.5 mg/L (≈ 31.8 µM); MIC [17, 33]: 3.13 mg/L (≈ 7.96 µM); MIC [18, 28]: 3.13 mg/L (≈ 7.96 µM)
CC1=C(C(=O)O)N2C(=O)[C@@H](NC(=O)[C@H](N)c3ccccc3)[C@H]2SC1 [CEX, Cefalexin, reference compound]	0.78 (≈ 2.25 µM)	> 100	0.1 (≈ 0.288 µM)	25 (≈ 72 µM)	12.5 (≈ 36 µM)	12.5 (≈ 36 µM)	> 100	> 100	12.5 (≈ 36 µM)	12.5 (≈ 36 µM)	12.5 (≈ 36 µM)	12.5 (≈ 36 µM)	> 100	6.25 (≈ 18 µM)	6.25 (≈ 18 µM)	3.13 (≈ 9.01 µM)	3.13 (≈ 9.01 µM)	0.2 (≈ 0.576 µM)		6.25 (≈ 18 µM)	MIC [2, 30]: 6.25 mg/L (≈ 18 µM); MIC [3, 31]: 6.25 mg/L (≈ 18 µM); MIC [5, 32]: 3.13 mg/L (≈ 9.01 µM); MIC [18, 29]: 3.13 mg/L (≈ 9.01 µM)
